According to EP4563146A1 (IRBM S.P.A., priority 2023, dated 2025):

Each compound was assayed on ZIKV replicon (assay: ZIKV replication inhibition assay (NanoLuc replicon in Vero cells)). Conditions: Zika virus, Vero, 72 h, read-out: ZIKA Cell_Nanoluc.
For `Nc1ccc(CC(=O)Nc2cc(NC(=O)[N-]c3c[n+](Cc4ccccn4)no3)cc(C(F)(F)F)c2)cn1` [Example 42], the EC50 was 1 to 20 µM.
In the case of `O=C(CS(=O)(=O)c1ccccc1)Nc1cc(NC(=O)[N-]c2c[n+](Cc3ccccn3)no2)cc(C(F)(F)F)c1` [Example 43], the EC50 is reported as 1 to 20 µM.
`O=C([N-]c1c[n+](Cc2ccccn2)no1)Nc1cc(NC(=O)c2ccon2)cc(C(F)(F)F)c1` [Example 44] was tested, and the EC50 was 1 to 20 µM.
`O=C([N-]c1c[n+](Cc2ccccn2)no1)Nc1cc(NC(=O)c2cnccn2)cc(C(F)(F)F)c1` [Example 45] showed an EC50 of 1 to 20 µM.
In the case of `O=C(C#Cc1ccccc1)Nc1cc(NC(=O)[N-]c2c[n+](Cc3ccccn3)no2)cc(C(F)(F)F)c1` [Example 46], the EC50 is reported as 1 to 20 µM.
`O=C([N-]c1c[n+](Cc2ccccn2)no1)Nc1cc(NC(=O)C2Cc3ccccc32)cc(C(F)(F)F)c1` (stereo not drawn) [Example 47] showed an EC50 of 1 to 20 µM.
In the case of `CC(C)n1ccc(C(=O)Nc2cc(NC(=O)[N-]c3c[n+](Cc4ccccn4)no3)cc(C(F)(F)F)c2)n1` [Example 48], the EC50 is reported as 1 to 20 µM.
`CN1CC(C(=O)Nc2cc(NC(=O)[N-]c3c[n+](Cc4ccccn4)no3)cc(C(F)(F)F)c2)C1` [Example 49] showed an EC50 of 1 to 20 µM.
Work on `O=C([N-]c1c[n+](Cc2ccccn2)no1)Nc1cc(NC(=O)C2CC2c2ccccc2)cc(C(F)(F)F)c1` (stereo not drawn) [Example 50] yielded an EC50 of 0.1 to 1 µM.
Work on `O=C(CC1CCC1)Nc1cc(NC(=O)[N-]c2c[n+](Cc3ccccn3)no2)cc(C(F)(F)F)c1` [Example 54] yielded an EC50 of 1 to 20 µM.
Work on `O=C([N-]c1c[n+](Cc2ccccn2)no1)Nc1cc(NC(=O)c2cc3n(n2)CCS(=O)(=O)C3)cc(C(F)(F)F)c1` [Example 64] yielded an EC50 greater than 20 µM.
Work on `O=C(Cn1c(C(F)F)nc2ccccc21)Nc1cc(NC(=O)[N-]c2c[n+](Cc3ccccn3)no2)cc(C(F)(F)F)c1` [Example 65] yielded an EC50 greater than 20 µM.
With `O=C([N-]c1c[n+](Cc2ccccn2)no1)Nc1cc(NC(=O)C23CCC(O)(CC2)C3)cc(C(F)(F)F)c1` [Example 66] the EC50 was greater than 20 µM.
For `Cc1cccc2c1OCC2C(=O)Nc1cc(NC(=O)[N-]c2c[n+](Cc3ccccn3)no2)cc(C(F)(F)F)c1` (stereo not drawn) [Example 67], the EC50 was 1 to 20 µM.
With `O=C([N-]c1c[n+](Cc2ccccn2)no1)Nc1cc(NC(=O)C2CC(Cc3ccccc3)C2)cc(C(F)(F)F)c1` (stereo not drawn) [Example 68] the EC50 was 1 to 20 µM.
`O=C([N-]c1c[n+](Cc2ccccn2)no1)Nc1cc(NC(=O)[C@H]2C[C@](O)(c3ccccn3)C2)cc(C(F)(F)F)c1` [Example 69] gave an EC50 greater than 20 µM.
In the case of `Cc1ccc(CN2CCC(C(=O)Nc3cc(NC(=O)[N-]c4c[n+](Cc5ccccn5)no4)cc(C(F)(F)F)c3)CC2)o1` [Example 70], the EC50 is reported as greater than 20 µM.
Compound `N#Cc1ccn(C2(C(=O)Nc3cc(NC(=O)[N-]c4c[n+](Cc5ccccn5)no4)cc(C(F)(F)F)c3)CC2)n1` [Example 71] has an EC50 of 1 to 20 µM.
Compound `Cn1cnnc1COCC(=O)Nc1cc(NC(=O)[N-]c2c[n+](Cc3ccccn3)no2)cc(C(F)(F)F)c1` [Example 72] has an EC50 greater than 20 µM.
Work on `O=C(CCOC1CCCC1)Nc1cc(NC(=O)[N-]c2c[n+](Cc3ccccn3)no2)cc(C(F)(F)F)c1` [Example 73] yielded an EC50 of 1 to 20 µM.
`O=C([N-]c1c[n+](Cc2ccccn2)no1)Nc1cc(NC(=O)c2cncn2C2CC2)cc(C(F)(F)F)c1` [Example 75] gave an EC50 greater than 20 µM.
In the case of `O=C([N-]c1c[n+](Cc2ccccn2)no1)Nc1cc(NC(=O)C(F)(F)CN2CCCC2)cc(C(F)(F)F)c1` [Example 76], the EC50 is reported as greater than 20 µM.
In the case of `O=C([N-]c1c[n+](Cc2ccccn2)no1)Nc1cc(NC(=O)C2CN(C3CC3)C2)cc(C(F)(F)F)c1` [Example 77], the EC50 is reported as greater than 20 µM.
Compound `O=C([N-]c1c[n+](Cc2ccccn2)no1)Nc1cc(NC(=O)c2ccc3c(n2)CCO3)cc(C(F)(F)F)c1` [Example 79] has an EC50 of 1 to 20 µM.
`O=C(CCCCS(=O)(=O)N1CCCCC1)Nc1cc(NC(=O)[N-]c2c[n+](Cc3ccccn3)no2)cc(C(F)(F)F)c1` [Example 82] gave an EC50 greater than 20 µM.
Compound `O=C([N-]c1c[n+](Cc2ccccn2)no1)Nc1cc(NC(=O)C2(Oc3ccc(Cl)cc3)COC2)cc(C(F)(F)F)c1` [Example 83] has an EC50 of 1 to 20 µM.
For `O=C([N-]c1c[n+](Cc2ccccn2)no1)Nc1cc(NC(=O)C2CCCC3(CCOC3)O2)cc(C(F)(F)F)c1` (stereo not drawn) [Example 84], the EC50 was 1 to 20 µM.
`O=C([N-]c1c[n+](Cc2ccccn2)no1)Nc1cc(NC(=O)C2CC(F)(F)C23CCC3)cc(C(F)(F)F)c1` (stereo not drawn) [Example 85] was tested, and the EC50 was 1 to 20 µM.
`O=C([N-]c1c[n+](Cc2ccccn2)no1)Nc1cc(NC(=O)C2CS(=O)(=O)CCO2)cc(C(F)(F)F)c1` (stereo not drawn) [Example 88] showed an EC50 greater than 20 µM.

Same assay, conditions: Zika virus, Vero, 72 h, read-out: ZIKA Cell_Nanoluc, Vero cells with stable ZIKV replicon, 72 h, Nano-Glo readout
`Cc1nc(CC(=O)Nc2cc(NC(=O)[N-]c3c[n+](Cc4ccccn4)no3)cc(C(F)(F)F)c2)cs1` [Example 41, ((3-(2-(2-Methylthiazol-4-yl)acetamido)-5-(trifluoromethyl)phenyl)-carbamoyl)(3-(pyridin-2-ylmethyl)-1,2,3-oxadiazol-3-ium-5-yl)amide] was tested, and the EC50 was 1 to 20 µM.
`O=C([N-]c1c[n+](Cc2ccccn2)no1)Nc1cc(NC(=O)C23CC(C(=O)O)(C2)C3)cc(C(F)(F)F)c1` [Example 52, ((3-(3-Carboxybicyclo[1.1.1]pentane-1-carboxamido)-5-(trifluoromethyl)phenyl)-carbamoyl)(3-(pyridin-2-ylmethyl)-1,2,3-oxadiazol-3-ium-5-yl)amide] showed an EC50 of 1 to 20 µM.
`O=C([N-]c1c[n+](Cc2ccccn2)no1)Nc1cc(NCCc2ccccc2)cc(C(F)(F)F)c1` [Example 53, ((3-(Phenethylamino)-5-(trifluoromethyl)-phenyl)carbamoyl)(3-(pyridin-2-ylmethyl)-1,2,3-oxadiazol-3-ium-5-yl)amide] was tested, and the EC50 was 1 to 20 µM.
`NCc1ccc(C[n+]2cc([N-]C(=O)Nc3cc(NC(=O)Cc4ccccc4)cc(C(F)(F)F)c3)on2)cc1` [Example 56, (3-(4-(Aminomethyl)benzyl)-1,2,3-oxadiazol-3-ium-5-yl)((3-(2-phenylacetamido)-5-(trifluoromethyl)phenyl)carbamoyl)amide] gave an EC50 of 1 to 20 µM.
`Cc1cc(NC(=O)Cc2ccccc2)cc(NC(=O)[N-]c2c[n+](Cc3ccccn3)no2)c1` [Example 57, ((3-Methyl-5-(2-phenylacetamido)phenyl)carbamoyl)(3-(pyridin-2-ylmethyl)-1,2,3-oxadiazol-3-ium-5-yl)amide] showed an EC50 greater than 20 µM.
`O=C(Cc1ccccc1)Nc1cc(Cl)cc(NC(=O)[N-]c2c[n+](Cc3ccccn3)no2)c1` [Example 58, ((3-Chloro-5-(2-phenylacetamido)phenyl)carbamoyl)(3-(pyridin-2-ylmethyl)-1,2,3-oxadiazol-3-ium-5-yl)amide] showed an EC50 of 1 to 20 µM.
For `O=C(CC1CC2CC1C2)Nc1cc(NC(=O)[N-]c2c[n+](Cc3ccccn3)no2)cc(C(F)(F)F)c1` (stereo not drawn) [Example 63, ((3-(2-(Bicyclo[2.1.1]hexan-2-yl)acetamido)-5-(trifluoromethyl)phenyl)carbamoyl)(3-(pyridin-2-ylmethyl)-1,2,3-oxadiazol-3-ium-5-yl)amide], the EC50 was 1 to 20 µM.
Work on `CC(c1ccc(C(=O)Nc2cc(NC(=O)[N-]c3c[n+](Cc4ccccn4)no3)cc(C(F)(F)F)c2)cc1)S(N)(=O)=O` (stereo not drawn) [Example 78, (3-(Pyridin-2-ylmethyl)-1,2,3-oxadiazol-3-ium-5-yl)((3-(4-(1-sulfamoylethyl)-benzamido)-5-(trifluoromethyl)phenyl)carbamoyl)amide] yielded an EC50 greater than 20 µM.
For `O=C([N-]c1c[n+](Cc2ccccn2)no1)Nc1cc(NC(=O)C2CCn3cncc3C2)cc(C(F)(F)F)c1` (stereo not drawn) [Example 80, (3-(Pyridin-2-ylmethyl)-1,2,3-oxadiazol-3-ium-5-yl)((3-(5,6,7,8-tetrahydroimidazo [1,5-a]pyridine-7-carboxamido)-5-(trifluoromethyl)phenyl)carbamoyl)amide], the EC50 was greater than 20 µM.
`O=C([N-]c1c[n+](Cc2ccccn2)no1)Nc1cc(NC(=O)c2ccn3c2COCC3)cc(C(F)(F)F)c1` [Example 81, ((3-(3,4-Dihydro-1H-pyrrolo[2,1-c][1,4]oxazine-8-carboxamido)-5-(trifluoromethyl)-phenyl)carbamoyl)(3-(pyridin-2-ylmethyl)-1,2,3-oxadiazol-3-ium-5-yl)amide] gave an EC50 of 1 to 20 µM.
With `O=C(CC1(N2CCCC2)COC1)Nc1cc(NC(=O)[N-]c2c[n+](Cc3ccccn3)no2)cc(C(F)(F)F)c1` [Example 86, (3-(Pyridin-2-ylmethyl)-1,2,3-oxadiazol-3-ium-5-yl)((3-(2-(3-(pyrrolidin-1-yl)oxetan-3-yl)acetamido)-5-(trifluoromethyl)phenyl)carbamoyl)amide] the EC50 was 1 to 20 µM.
Work on `O=C([N-]c1c[n+](Cc2ccccn2)no1)Nc1cc(NC(=O)c2[nH]cc3c2CCC3)cc(C(F)(F)F)c1` [Example 87, (3-(Pyridin-2-ylmethyl)-1,2,3-oxadiazol-3-ium-5-yl)((3-(2,4,5,6-tetrahydrocyclopenta[c]pyrrole-1-carboxamido)-5-(trifluoromethyl)phenyl)-carbamoyl)amide] yielded an EC50 greater than 20 µM.
Compound `O=C(Cc1ccccc1)Nc1cc(NC(=O)[N-]c2c[n+](Cc3ccccn3)no2)cc(C2CC2)c1` [Example 89, ((3-Cyclopropyl-5-(2-phenylacetamido)phenyl)carbamoyl)(3-(pyridin-2-ylmethyl)-1,2,3-oxadiazol-3-ium-5-yl)amide] has an EC50 of 1 to 20 µM.
Compound `O=C(Cc1cc(NC(=O)[N-]c2c[n+](Cc3ccccn3)no2)cc(C(F)(F)F)c1)NCc1ccccc1` [Example 90, ((3-(2-(Benzylamino)-2-oxoethyl)-5-(trifluoromethyl)phenyl)carbamoyl)(3-(pyridin-2-ylmethyl)-1,2,3-oxadiazol-3-ium-5-yl)amide] has an EC50 of 1 to 20 µM.
For `C=CCOC(=O)C[n+]1cc([N-]C(=O)Nc2cc(NC(=O)Cc3ccccc3)cc(C(F)(F)F)c2)on1` [Example 97, (3-(2-(Allyloxy)-2-oxoethyl)-1,2,3-oxadiazol-3-ium-5-yl)((3-(2-phenylacetamido)-5-(trifluoromethyl)phenyl)carbamoyl)amide], the EC50 was greater than 20 µM.
`COC(=O)c1ccc(C[n+]2cc([N-]C(=O)Nc3cc(NC(=O)Cc4ccccc4)cc(C(F)(F)F)c3)on2)cc1` [Example 98, (3-(4-(Methoxycarbonyl)benzyl)-1,2,3-oxadiazol-3-ium-5-yl)((3-(2-phenyl-acetamido)-5-(trifluoromethyl)phenyl)carbamoyl)amide] showed an EC50 of 1 to 20 µM.
